# Assay results published in publication PMC12254266, “Multicolored sequential resonance energy transfer for detection of simultaneous ligand binding at G protein-coupled receptors” (Nature Communications, 2025).
# Values joined by “and” are separate entries in the source; they are usually repeats but may differ in a detail not shown here. Equal entries are not always repeated.
# Assays:
# [1] = biological target: FFA1 (Homo sapiens, UniProt O14842); assay: Ca2+ mobilisation (Fura2) in Flp-In T-REx 293 cells expressing Nluc-FFA1, FFA1-Nluc or untagged FFA1; type: cell-based; design: expressed in transfected cells; settings: for pEC50: Ca2+ data, mean±SEM; for pEC50 / EMax: NR = No response; for EMax: percentage of response to 10 μM T360; for Ca2+ Response as a % of T360 Response: single technical replicates
# Sequence of FFA1 (O14842 whole entry): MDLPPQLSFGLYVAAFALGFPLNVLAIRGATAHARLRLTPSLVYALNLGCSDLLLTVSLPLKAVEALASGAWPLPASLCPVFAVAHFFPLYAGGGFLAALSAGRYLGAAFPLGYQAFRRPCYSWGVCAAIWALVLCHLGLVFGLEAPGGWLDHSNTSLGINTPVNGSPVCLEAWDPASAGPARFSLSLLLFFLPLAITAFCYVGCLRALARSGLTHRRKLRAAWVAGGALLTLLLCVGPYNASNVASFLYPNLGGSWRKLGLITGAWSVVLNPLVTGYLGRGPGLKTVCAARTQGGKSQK
# Experimental: Nluc-FFA1, FFA1-Nluc or untagged FFA1 Flp-In T-REx 293 cells were plated at 50,000 cells per well in poly-D-lysine coated black clear bottom 96-well plates. Cells were then cultured for 24 h until reaching confluency before culture medium was replaced with medium containing 100 ng/mL of doxycycline to induce receptor expression. Cells were cultured for a further 24 h before the assay. On the day of the assay culture medium was removed and replaced with medium containing 3 μM Fura2-AM Ca^2+ dye. […] Fura2 fluorescent emission at 520 nm following excitation with each of 340 and 380 nm was measured in regular intervals both before and after adding test compounds for a total of 90 s per well. Calcium responses were determined by taking the peak 340/380 ratio after first subtracting the ratios obtained prior to addition of test compound.
# [2] = biological target: FFA1-Nluc (Homo sapiens, UniProt O14842); assay: DISCo-BRET (endpoint, spectra scan, kinetics) with TUG-2591 and TUG-2597 at C terminal Nluc tagged FFA1; type: binding; design: expressed in transfected cells; settings: for Specific BRET (540/450), % of control: Figure 4Bi, single replicate values (technical duplicate); for Specific BRET (690/540), % of control: technical duplicate
# Sequence of FFA1-Nluc (O14842 whole entry): as above
# Experimental: Nluc-FFA1 or FFA1-Nluc Flp-In T-REx 293 cells were plated at 50,000 cells per well in poly-D-lysine coated white 96-well plates. Cells were cultured for 24 h in the plate before medium was replaced with medium containing 100 ng/mL of doxycycline to induce receptor expression. After culturing for a further 24 h, culture medium was removed, cells washed with HBSS and incubated in HBSS for 30 min. For all DISCo-BRET formats Nano-Glo substrate was then added at a 1:800 final dilution and cells incubated for 10 min. Following substrate addition experimental set up different among the three formats: endpoint, spectra scan, and kinetics.
# For endpoint experiments all fluorescent and unlabelled ligands were added to the cells and incubated for 5 min at 37 °C. Luminescent emission was then measured using a CLARIOstar microplate reader with monochromator set at 450–60 nm (Nluc), 540−60 nm (NBD) and 690–100 nm (SulfoCy5). BRET ratios were then calculated as either SulfoCy5 emission divided by NBD emission, SulfoCy5 emission divided by Nluc emission, or NBD emission divided by Nluc emission.
# For spectra scan experiments all indicated fluorescent and unlabelled ligands were added to the cells and cells incubated for 5 min at 37 °C. Luminescence emissions were then measured from each well of the plate from 440 nm – 740 nm with a 5 nm resolution using a CLARIOstar microplate. Luminescent emission spectra were then normalised as a percentage of the maximal Nluc emission peak ( ~ 460 nm), then subtracted with the spectrum obtained in the presence of high concentrations of ligands competing for both binding sites to obtain specific BRET binding spectra.
# In kinetic DISCo-BRET experiments plates were placed directly in a CLARIOstar plate reader set to 25 °C 10 min after Nano-Glo substrate addition. Luminescent measurements were then taken with three sequential measurements per well with the monochromator set to 450–60 nm (Nluc), 540 - 60 nm (NBD) and 690–100 nm (SulfoCy5) taken in 20 or 30 s intervals. After 5 min of background measurements, the plate reader was paused for the first indicated fluorescent ligand(s) addition, before immediately returning the plate to the reader to continue luminescence readings. After 5 min, the reader was again paused to add the second fluorescent ligand (association assays) or competing ligand(s) (dissociation assays), before immediately continuing the measurements for the indicated time. Non-specific control binding was obtained by adding the indicated competing ligand(s) 5 min prior to the addition of the first fluorescent ligand.
Structure (SMILES),pEC50 [1],EMax [1],Ca2+ Response as a % of T360 Response ([1]; log[Ligand] -5.5),Ca2+ Response as a % of T360 Response ([1]; log[Ligand] -6),Ca2+ Response as a % of T360 Response ([1]; log[Ligand] -6.5),Ca2+ Response as a % of T360 Response ([1]; log[Ligand] -7),Ca2+ Response as a % of T360 Response ([1]; log[Ligand] -8),Ca2+ Response as a % of T360 Response ([1]; log[Ligand] -9),other results
COc1ccc(C(=O)N2CCC(CNC(=O)OC(C)(C)C)CC2)c(N2CCC(COc3cccc(C(CC(=O)O)C4CC4)c3)CC2)c1.O=C(O)C(F)(F)F (stereo not shown) [TUG-2450],6.18±0.09,108±7%,–,–,–,–,–,–,–
COc1ccc(C(=O)N2CCC(CCNC(=O)OC(C)(C)C)CC2)c(N2CCC(COc3cccc(C(CC(=O)O)C4CC4)c3)CC2)c1.O=C(O)C(F)(F)F (stereo not shown) [TUG-2451],6.20±0.14,112±10%,–,–,–,–,–,–,–
COc1ccc(C(=O)N(CCNC(=O)OC(C)(C)C)c2ccccc2)c(N2CCC(COc3cccc(C(CC(=O)O)C4CC4)c3)CC2)c1.Cl (stereo not shown) [TUG-2455],6.63±0.10,103±12%,–,–,–,–,–,–,–
COc1ccc(C(=O)NCC(C)(C)CNC(=O)OC(C)(C)C)c(N2CCC(COc3cccc(C(CC(=O)O)C4CC4)c3)CC2)c1.Cl (stereo not shown) [TUG-2457],6.62±0.15,108±3%,–,–,–,–,–,–,–
COc1ccc(C(=O)N2CCN(CCNC(=O)OC(C)(C)C)CC2)c(N2CCC(COc3cccc(C(CC(=O)O)C4CC4)c3)CC2)c1.Cl (stereo not shown) [TUG-2458],5.38±0.09,133±5%,–,–,–,–,–,–,–
COc1ccc(C(=O)N(CC(C)(C)CNC(=O)OC(C)(C)C)c2ccccc2)c(N2CCC(COc3cccc(C(CC(=O)O)C4CC4)c3)CC2)c1.O=C(O)C(F)(F)F (stereo not shown) [TUG-2467],6.78±0.02,124±9%,–,–,–,–,–,–,–
COc1ccc(C(=O)NCC(C)(C)CNc2ccc([N+](=O)[O-])c3nonc23)c(N2CCC(COc3cccc(C(CC(=O)O)C4CC4)c3)CC2)c1.O=C(O)C(F)(F)F (stereo not shown) [TUG-2489],5.29±0.04,–,75.8584% and 55.2490% and 64.4948% and 77.9746% and 61.7732% and 62.6510%,11.4043% and 15.1652% and 19.0434% and 4.1691% and 0.1177% and 9.7037%,0.7033% and -0.7918% and -3.1732% and -6.5594% and 0.0827% and 3.4744%,-3.1258% and 4.2395% and 1.6831% and -3.2821% and -0.2376% and 1.2224%,-0.4995% and 5.1700% and -1.2657% and 6.6097% and 0.3774% and -0.3774%,0.4589% and 3.5934% and -2.5884% and -5.3677% and 0.8677% and 2.5453%,Ca2+ Response as a % of T360 Response ([1]; log[Ligand] -5): 102.5277% and 96.3666% and 102.3411% and 80.8186% and 76.8959%
COc1ccc(C(=O)N(CC(C)(C)CNc2ccc([N+](=O)[O-])c3nonc23)c2ccccc2)c(N2CCC(COc3cccc(C(CC(=O)O)C4CC4)c3)CC2)c1.O=C(O)C(F)(F)F (stereo not shown) [TUG-2490],5.95±0.16,–,93.1455% and 77.9850% and 75.8107% and 96.4232% and 72.2793% and 68.6021%,53.6775% and 46.6859% and 50.0991% and 72.4727% and 32.6717% and 50.6607%,16.7030% and 15.2768% and 30.6910% and 52.9860% and 26.5604% and 17.0828%,-0.5150% and -0.6020% and 9.0880% and 4.0961% and 1.0500% and 13.2109%,-0.3253% and 0.1971% and 2.2527% and 3.6975% and -0.7574% and 0.7574%,3.6767% and 1.4233% and -0.8955% and -4.2309% and 0.8739% and -0.0879%,–
COc1ccc(C(=O)N(CC(C)(C)C)c2cccc(C)n2)c(N2CCC(COc3cccc(C(CC(=O)NCCCNc4ccc([N+](=O)[O-])c5nonc45)C4CC4)c3)CC2)c1.O=C(O)C(F)(F)F (stereo not shown) [TUG-2598],–,–,1.5741% and 1.0900% and 0.3918% and 0.5253% and 0.2798% and 0.0720% and 0.3603% and 1.4514% and 1.2937%,0.7619% and 0.7231% and 2.0549% and 2.7546% and 3.4553% and 0.9789% and -0.3872% and -0.5141% and 0.0396%,0.0902% and 2.5170% and 0.7188% and 6.6987% and 2.2005% and 0.1478% and -0.6706% and 0.0668% and 0.2619%,0.1653% and 1.3781% and 1.4889% and 2.9024% and 3.7196% and 2.7339% and -0.5451% and -0.2430% and 0.9384%,0.4880% and 2.3639% and 0.4031% and 3.7453% and 1.7322% and 2.3495% and 0.5137% and 0.8889% and 1.3866%,4.5581% and 0.9272% and 0.1871% and 0.2081% and 3.1188% and 3.6549% and 0.3770% and -0.1948% and -0.1822%,activity in Ca2+ assays ([1]; in words): loss of activity; Ca2+ Response as a % of T360 Response ([1]; log[Ligand] -5): 7.1012% and 15.2717% and 1.6246% and 2.7551% and 3.0159% and 6.2735% and 0.8241% and 1.6284% and -0.5359%
"CC/C=C\C/C=C\C/C=C\CCCCCCCC(=O)O [aLA, α-linolenic acid, reference compound]",–,–,–,–,–,–,–,–,"pIC50 DISCo-BRET NBD/Nluc ([2]; 100 nM TUG-2591 and […] TUG-2597, NC = No competition): ~ 2.9; pIC50 DISCo-BRET SulfoCy5/NBD ([2]; 100 nM TUG-2591 and […] TUG-2597, one site model, NC = No competition): ~ 3.7; Specific BRET (540/450), % of control ([2]; log[Ligand] -3.5): 354.98 % of control and 422.66 % of control and 352.08 % of control and 364.14 % of control and 218.20 % of control and 190.12 % of control and 192.71 % of control and 171.70 % of control; Specific BRET (540/450), % of control ([2]; log[Ligand] -4): 179.15 % of control and 260.42 % of control and 251.25 % of control and 232.54 % of control and 120.10 % of control and 104.16 % of control and 145.44 % of control and 143.73 % of control; Specific BRET (540/450), % of control ([2]; log[Ligand] -4.5): 155.59 % of control and 151.36 % of control and 193.87 % of control and 183.26 % of control and 24.44 % of control and 77.47 % of control and 109.72 % of control and 124.03 % of control; Specific BRET (690/540), % of control ([2]; log[Ligand] -4.5): 81.41 % of control and 79.89 % of control and 110.36 % of control and 102.58 % of control and 55.19 % of control and 61.69 % of control and 79.93 % of control; Specific BRET (540/450), % of control ([2]; log[Ligand] -5): 123.87 % of control and 127.19 % of control and 164.97 % of control and 169.96 % of control and 63.60 % of control and 42.81 % of control and 103.55 % of control and 110.64 % of control; Specific BRET (690/540), % of control ([2]; log[Ligand] -5): 89.67 % of control and 83.59 % of control and 104.96 % of control and 115.39 % of control and 81.83 % of control and 84.93 % of control and 95.09 % of control and 92.80 % of control; Specific BRET (540/450), % of control ([2]; log[Ligand] -5.5): 115.11 % of control and 123.26 % of control and 154.99 % of control and 156.24 % of control and 24.44 % of control and 64.99 % of control and 93.96 % of control and 98.42 % of control; Specific BRET (690/540), % of control ([2]; log[Ligand] -5.5): 91.96 % of control and 95.98 % of control and 110.87 % of control and 118.78 % of control and 93.29 % of control and 101.24 % of control and 95.01 % of control and 95.16 % of control; Specific BRET (540/450), % of control ([2]; log[Ligand] -6): 117.22 % of control and 113.60 % of control and 140.23 % of control and 145.01 % of control and 35.88 % of control and 33.45 % of control and 94.09 % of control and 108.27 % of control; Specific BRET (540/450), % of control ([2]; log[Ligand] -7): 110.27 % of control and 80.36 % of control and 117.15 % of control and 115.28 % of control and 96.88 % of control and 77.82 % of control and 92.78 % of control and 101.71 % of control; Specific BRET (690/540), % of control ([2]; log[Ligand] -7): 92.39 % of control and 86.20 % of control and 111.87 % of control and 113.13 % of control and 97.73 % of control and 97.01 % of control and 100.19 % of control and 94.25 % of control; Specific BRET (690/540), % of control ([2]; log[ligand] -6): 86.09 % of control and 86.20 % of control and 111.62 % of control and 112.25 % of control and 100.93 % of control and 101.65 % of control and 99.73 % of control and 101.33 % of control"
